The target in this test is T1, MLLT1 (Homo sapiens, UniProt Q03111).
T1 sequence (Q03111 1-559): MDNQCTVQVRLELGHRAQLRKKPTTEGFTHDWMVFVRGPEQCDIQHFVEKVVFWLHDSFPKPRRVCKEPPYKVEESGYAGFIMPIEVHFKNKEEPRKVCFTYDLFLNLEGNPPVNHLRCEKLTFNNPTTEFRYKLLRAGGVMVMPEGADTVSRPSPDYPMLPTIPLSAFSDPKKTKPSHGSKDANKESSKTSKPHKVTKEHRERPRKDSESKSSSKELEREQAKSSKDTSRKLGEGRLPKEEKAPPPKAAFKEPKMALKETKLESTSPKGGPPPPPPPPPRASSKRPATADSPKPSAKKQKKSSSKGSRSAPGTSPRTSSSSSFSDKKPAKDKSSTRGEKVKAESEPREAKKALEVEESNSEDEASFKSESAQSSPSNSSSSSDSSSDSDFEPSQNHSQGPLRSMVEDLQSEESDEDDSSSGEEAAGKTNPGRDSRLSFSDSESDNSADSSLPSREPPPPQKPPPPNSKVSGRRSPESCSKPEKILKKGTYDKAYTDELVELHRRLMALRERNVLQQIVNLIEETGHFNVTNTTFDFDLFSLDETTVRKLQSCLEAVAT
The test is described as follows: MLLT1 degradation assay in MV4-11 cells (JESS, 24 h). On the set-up: endogenous in cells; host or cells: MV4-11 (ATCC CRL-9591). The class given is cell-based. Conditions: vs DMSO control. The method, then:
MLLT1 degradation efficacy of compounds was tested in an automated chemiluminescent detection system (JESS, Cat #004-650). MV4-11 (#CRL-9591, ATCC) cells were seeded at a density of 1.2 million cells/well in a non-treated 6-well cell culture plate in 2.4 mL of complete medium (IMDM+10% FBS+1× Penicillin-Streptomycin). 10 mM DMSO stocks were prepared, and cells were treated with three concentrations of test compounds viz. 1000, 100 and 10 nM at a final DMSO concentration of 0.1% and incubated for 24 h at 37° C., 5% CO2. Post incubation, cells were centrifuged, washed with HBSS and lysed in 70 μL of RIPA buffer supplemented with Protease inhibitors (sc-24948; Santa Cruz). Subsequently, protein estimation was done using BCA protein assay kit (23225; Pierce). 4 ug protein lysate (4 uL of 1 ug/uL lysate) was loaded into each well of the JESS cartridge (SM-W001; Bio-techne) and the JESS run was performed using 1:900 dilution of anti-human MLLT1 antibody (14893; Cell signaling technology) and 1:1200 dilution of anti-human GAPDH antibody (2118; Cell signaling technology) with anti-rabbit secondary detection module (DM-001; Bio-Techne). Post run, data were analysed using “Compass for SW” software for chemiluminescent detection. The peak area for each band was used for the calculation of MLLT1 degradation with respect to DMSO control. Data is shown as “MLLT1% degradation”. • Category A: A≥75% degradation • Category B: 50%≤B<75% degradation • Category C: 25%≤C<50% degradation • Category D: D<25% degradation

As to `Cc1nn(CCCCCCCC#Cc2cccc3c2CN(C2CCC(=O)NC2=O)C3=O)c2cc(C(=O)Nc3cc4[nH]c([C@H]5CC6(CC6)CN5C)cc4cn3)ccc12` (stereo in doubt) [Example 56, 1-(9-(2-(2,6-dioxopiperidin-3-yl)-1-oxoisoindolin-4-yl)non-8-yn-1-yl)-3-methyl-N-(2-((rel-R)-5-methyl-5-azaspiro[2.4]heptan-6-yl)-1H-pyrrolo[3,2-c]pyridin-6-yl)-1H-indazole-6-carboxamide], the “MLLT1% Degradation @ 0.01 μM” value was “A (Category A: A≥75% degradation)”, the “MLLT1% Degradation @ 0.1 μM” value is “A (Category A: A≥75% degradation)” and the “MLLT1% Degradation @ 1 μM” value is on record as “A (Category A: A≥75% degradation)”.
For the compound `Cc1nn(CC2CCN(c3cccc4c3CN(C3CCC(=O)NC3=O)C4=O)CC2)c2cc(C(=O)Nc3cc4[nH]c([C@H]5CCCN5C)cc4cn3)ccc12` (stereo in doubt) [Example 108, 1-((1-(2-((rel-R)-2,6-dioxopiperidin-3-yl)-1-oxoisoindolin-4-yl)piperidin-4-yl)methyl)-3-methyl-N-(2-((R)-1-methylpyrrolidin-2-yl)-1H-pyrrolo[3,2-c]pyridin-6-yl)-1H-indazole-6-carboxamide], the “MLLT1% Degradation @ 0.01 μM” value is given as “B (Category B: 50%≤B<75% degradation)”, the “MLLT1% Degradation @ 0.1 μM” value was “A (Category A: A≥75% degradation)” and the “MLLT1% Degradation @ 1 μM” value is “A (Category A: A≥75% degradation)”.
Consider `Cc1nn(CCCCCCCCNc2cccc3c2C(=O)N(C2CCC(=O)NC2=O)C3=O)c2cc(C(=O)Nc3cc4[nH]c([C@@H]5CCCN5C)cc4cn3)ccc12` (stereo partly drawn) [Example 4, 1-(8-{[2-(2,6-dioxopiperidin-3-yl)-1,3-dioxoisoindol-4-yl]amino}octyl)-3-methyl-N-{2-[(2S)-1-methylpyrrolidin-2-yl]-1H-pyrrolo[3,2-c]pyridin-6-yl}indazole-6-carboxamide], for which the “MLLT1% Degradation @ 0.01 μM” value was “D (Category D: D<25% degradation)”, the “MLLT1% Degradation @ 0.1 μM” value was “D (Category D: D<25% degradation)” and the “MLLT1% Degradation @ 1 μM” value is on record as “B (Category B: 50%≤B<75% degradation)”.
`Cc1c2ccc(C(=O)Nc3cc4[nH]c([C@H]5CCCN5C)cc4cn3)cc2nn1CCCCCCCCNc1cccc2c1C(=O)N(C1CCC(=O)NC1=O)C2=O` (stereo partly drawn) [Example 5, 2-(8-((2-(2,6-dioxopiperidin-3-yl)-1,3-dioxoisoindolin-4-yl)amino)octyl)-3-methyl-N-(2-((R)-1-methylpyrrolidin-2-yl)-1H-pyrrolo[3,2-c]pyridin-6-yl)-2H-indazole-6-carboxamide]: the “MLLT1% Degradation @ 0.01 μM” value was “B (Category B: 50%≤B<75% degradation)”, the “MLLT1% Degradation @ 0.1 μM” value was “B (Category B: 50%≤B<75% degradation)” and the “MLLT1% Degradation @ 1 μM” value was “C (Category C: 25%≤C<50% degradation)”.
Consider `CN1CCC[C@@H]1c1cc2cnc(NC(=O)c3ccc4c(c3)c(N3CCC(CN5CCN(c6cc7c(cc6F)C(=O)N(C6CCC(=O)NC6=O)C7=O)CC5)CC3)nn4C)cc2[nH]1` (stereo partly drawn) [Example 6, 3-[4-({4-[2-(2,6-dioxopiperidin-3-yl)-6-fluoro-1,3-dioxoisoindol-5-yl]piperazin-1-yl}methyl)piperidin-1-yl]-1-methyl-N-{2-[(2R)-1-methylpyrrolidin-2-yl]-1H-pyrrolo[3,2-c]pyridin-6-yl}indazole-5-carboxamide], for which the “MLLT1% Degradation @ 0.01 μM” value is “C (Category C: 25%≤C<50% degradation)”, the “MLLT1% Degradation @ 0.1 μM” value is recorded as “B (Category B: 50%≤B<75% degradation)” and the “MLLT1% Degradation @ 1 μM” value was “A (Category A: A≥75% degradation)”.
In the case of `Cc1c(OCCCCCCCCn2nc(C)c3ccc(C(=O)Nc4cc5[nH]c([C@H]6CCCN6C)cc5cn4)cc32)cccc1N1CCC(=O)NC1=O` [Example 9, 1-{8-[3-(2,4-dioxo-1,3-diazinan-1-yl)-2-methylphenoxy]octyl}-3-methyl-N-{2-[(2R)-1-methylpyrrolidin-2-yl]-1H-pyrrolo[3,2-c]pyridin-6-yl}indazole-6-carboxamide], the “MLLT1% Degradation @ 0.01 μM” value is on record as “D (Category D: D<25% degradation)”, the “MLLT1% Degradation @ 0.1 μM” value was “C (Category C: 25%≤C<50% degradation)” and the “MLLT1% Degradation @ 1 μM” value was “A (Category A: A≥75% degradation)”.
The like results for `Cc1c(OCCCCCCn2nc(C)c3ccc(C(=O)Nc4cc5[nH]c([C@H]6CCCN6C)cc5cn4)cc32)cccc1N1CCC(=O)NC1=O` [Example 10, 1-{6-[3-(2,4-dioxo-1,3-diazinan-1-yl)-2-methylphenoxy]hexyl}-3-methyl-N-{2-[(2R)-1-methylpyrrolidin-2-yl]-1H-pyrrolo[3,2-c]pyridin-6-yl}indazole-6-carboxamide] were, in that order, “C (Category C: 25%≤C<50% degradation)”, “C (Category C: 25%≤C<50% degradation)” and “C (Category C: 25%≤C<50% degradation)”.
In the case of `Cc1nn(CCCCN2CCN(c3ccc4c(c3)C(=O)N(C3CCC(=O)NC3=O)C4=O)CC2)c2cc(C(=O)Nc3cc4[nH]c([C@@H]5CCCN5C)cc4cn3)ccc12` (stereo partly drawn) [Example 20, 1-(4-{4-[2-(2,6-dioxopiperidin-3-yl)-1,3-dioxoisoindol-5-yl]piperazin-1-yl}butyl)-3-methyl-N-{2-[(2S)-1-methylpyrrolidin-2-yl]-1H-pyrrolo[3,2-c]pyridin-6-yl}indazole-6-carboxamide], the “MLLT1% Degradation @ 0.01 μM” value is recorded as “C (Category C: 25%≤C<50% degradation)”, the “MLLT1% Degradation @ 0.1 μM” value was “C (Category C: 25%≤C<50% degradation)” and the “MLLT1% Degradation @ 1 μM” value is “A (Category A: A≥75% degradation)”.
Regarding `Cc1nn(CCOCCN2CCN(c3cc4c(cc3F)C(=O)N(C3CCC(=O)NC3=O)C4=O)CC2)c2cc(C(=O)Nc3cc4[nH]c([C@H]5CCCN5C)cc4cn3)ccc12` (stereo partly drawn) [Example 24, 1-(2-(2-(4-(2-(2,6-dioxopiperidin-3-yl)-6-fluoro-1,3-dioxoisoindolin-5-yl)piperazin-1-yl)ethoxy)ethyl)-3-methyl-N-(2-((R)-1-methylpyrrolidin-2-yl)-1H-pyrrolo[3,2-c]pyridin-6-yl)-1H-indazole-6-carboxamide], the “MLLT1% Degradation @ 0.1 μM” value was “B (Category B: 50%≤B<75% degradation)” and the “MLLT1% Degradation @ 1 μM” value is “A (Category A: A≥75% degradation)”.
The matching figures for `Cc1nn(CCCC2CCN(c3ccc(C(=O)NC4CCC(=O)NC4=O)cc3F)CC2)c2cc(C(=O)Nc3cc4[nH]c([C@H]5CCCN5C)cc4cn3)ccc12` (stereo partly drawn) [Example 28, 1-(3-(1-(4-((2,6-dioxopiperidin-3-yl)carbamoyl)-2-fluorophenyl)piperidin-4-yl)propyl)-3-methyl-N-(2-((R)-1-methylpyrrolidin-2-yl)-1H-pyrrolo[3,2-c]pyridin-6-yl)-1H-indazole-6-carboxamide]: “C (Category C: 25%≤C<50% degradation)” and “C (Category C: 25%≤C<50% degradation)”.
As for `Cc1nn(CCCCCC#Cc2cccc(C(=O)NC3CCC(=O)NC3=O)c2F)c2cc(C(=O)Nc3cc4[nH]c([C@H]5CCCN5C)cc4cn3)ccc12` (stereo partly drawn) [Example 34, 1-(7-(3-((2,6-dioxopiperidin-3-yl)carbamoyl)-2-fluorophenyl)hept-6-yn-1-yl)-3-methyl-N-(2-((R)-1-methylpyrrolidin-2-yl)-1H-pyrrolo[3,2-c]pyridin-6-yl)-1H-indazole-6-carboxamide], the “MLLT1% Degradation @ 0.01 μM” value is “D (Category D: D<25% degradation)”, the “MLLT1% Degradation @ 0.1 μM” value is reported as “B (Category B: 50%≤B<75% degradation)” and the “MLLT1% Degradation @ 1 μM” value was “A (Category A: A≥75% degradation)”.
The matching figures for `Cc1c(C#CCCCCCn2nc(C)c3ccc(C(=O)Nc4cc5[nH]c([C@H]6CCCN6C)cc5cn4)cc32)cccc1C(=O)NC1CCC(=O)NC1=O` (stereo partly drawn) [Example 35, 1-(7-(3-((2,6-dioxopiperidin-3-yl)carbamoyl)-2-methylphenyl)hept-6-yn-1-yl)-3-methyl-N-(2-((R)-1-methylpyrrolidin-2-yl)-1H-pyrrolo[3,2-c]pyridin-6-yl)-1H-indazole-6-carboxamide]: “C (Category C: 25%≤C<50% degradation)”, “D (Category D: D<25% degradation)” and “B (Category B: 50%≤B<75% degradation)”.

(Values after patent US20260199484A1, “PROTAC DEGRADERS OF MLLT1 AND/OR MLLT3” (DARK BLUE THERAPEUTICS LTD, priority 2024, published 2026).)
